# Source: US8993570B2, “Substituted triazolo-pyridazine derivatives” (Concert Pharmaceuticals, Inc., priority 2009, dated 2015)
# Legend:
# [1] = Metabolic stability in human liver microsomes; assay type: in vitro ADME; conditions: 0.25 μM test compound; for % Parent Remaining (30 min) Ave ± SD: human liver microsomes 2.0 mg/mL, 2 mM NADPH, pH 7.4, 37° C.; for half-life at 0.25 μM: pH 7.4, in vitro t1/2 in human liver microsomes 2.0 mg/mL, NC = not calculable due to <20% metabolism in HLM and flat profiles, read-out: t1/2 (min) Ave ± SD
# Method: Microsomal Assay: Human liver microsomes (20 mg/mL) were obtained from Xenotech, LLC (Lenexa, Kans.). β-nicotinamide adenine dinucleotide phosphate, reduced form (NADPH), magnesium chloride (MgCl2), and dimethyl sulfoxide (DMSO) were purchased from Sigma-Aldrich.
# Determination of Metabolic Stability: 7.5 mM stock solutions of test compounds were prepared in DMSO. The 7.5 mM stock solutions were diluted to 12.5 μM in acetonitrile (ACN). The 20 mg/mL human liver microsomes were diluted to 2.5 mg/mL in 0.1 M potassium phosphate buffer, pH 7.4, containing 3 mM MgCl2. The diluted microsomes were added to wells of a 96-well deep-well polypropylene plate in triplicate. […] of the 12.5 μM test compound was added to the microsomes and the mixture was pre-warmed for 10 minutes. Reactions were initiated by addition of pre-warmed NADPH solution. The final reaction volume was 0.5 mL and contains 2.0 mg/mL human liver microsomes, 0.25 μM test compound, and 2 mM NADPH in 0.1 M potassium phosphate buffer, pH 7.4, and 3 mM MgCl2. The reaction mixtures were incubated at 37° C., and 50 μL aliquots were removed at 0, 5, 10, 20, and 30 minutes and added to shallow-well 96-well plates which contain 50 μL of ice-cold ACN with internal standard to stop the reactions. The plates were stored at 4° C. for 20 minutes after which 100 μL of water was added to the wells of the plate before centrifugation to pellet precipitated proteins. Supernatants were transferred to another 96-well plate and analyzed for amounts of parent remaining by LC-MS/MS using an Applied Bio-systems API 4000 mass spectrometer. The same procedure was followed for TPA-023 and the positive control, 7-ethoxycoumarin (1 μM). Testing was done in triplicate and individual compounds were tested in two or four different runs.
# The in vitro t1/2s for test compounds were calculated from the slopes of the linear regression of % parent remaining (ln) vs incubation time relationship: in vitro t1/2=0.693/k k=−[slope of linear regression of % parent remaining (ln) vs incubation time]. Data analysis was performed using Microsoft Excel Software.
# The results of these experiments are shown in Table 3, below, and in FIGS. 1 and 2. In the Table and the two Figures, “% Parent remaining” refers to the percentage of starting material remaining at the specified time point.
# [2] = humans, phase I clinical trial, cited from earlier work
% Parent Remaining (30 min) Ave ± SD [1] [%],Structure (SMILES),further results
82 ± 2.8,"[2H]C([2H])([2H])C(O)(c1cc2nnc(-c3ccccc3F)n2nc1OCc1ncnn1CC)C([2H])([2H])[2H] [Compound 202, 2-(6-((1-ethyl-1H-1,2,4-triazol-5-yl)methoxy)-3-(2-fluorophenyl)[1,2,4]triazolo[4,3-b]pyridazin-7-yl)propan-1,1,1,3,3,3-d6-2-ol]",
91 ± 7.1,"[2H]C([2H])(Oc1nn2c(-c3ccccc3F)nnc2cc1C(C([2H])([2H])[2H])(C([2H])([2H])[2H])C([2H])([2H])[2H])c1ncnn1C([2H])([2H])[2H] [Compound 110, 7-d9-tert-Butyl-3-(2-fluorophenyl)-6-((1-d3-methyl-1H-1,2,4-triazol-5-yl)-methoxy-d2)-[1,2,4]triazolo[4,3-b]pyridazine]",
89 ± 2.5,"[2H]C([2H])(Oc1nn2c(-c3ccccc3F)nnc2cc1C(C([2H])([2H])[2H])(C([2H])([2H])[2H])C([2H])([2H])[2H])c1ncnn1C([2H])([2H])C([2H])([2H])[2H] [Compound 106, 7-d9-tert-Butyl-6-((1-d5-ethyl-1H-1,2,4-triazol-5-yl)-methoxy-d2)-3-(2-fluorophenyl)-[1,2,4]triazolo[4,3-b]pyridazine]",
90 ± 0.7,[2H]C([2H])([2H])C([2H])([2H])n1ncnc1COc1nn2c(-c3ccccc3F)nnc2cc1C(C([2H])([2H])[2H])(C([2H])([2H])[2H])C([2H])([2H])[2H] [Compound 105],
80 ± 3.3,"[2H]C([2H])([2H])C(c1cc2nnc(-c3ccccc3F)n2nc1OCc1ncnn1CC)(C([2H])([2H])[2H])C([2H])([2H])[2H] [Compound 102, 7-d9-tert-Butyl-6-((1-ethyl-1H-1,2,4-triazol-5-yl)methoxy)-3-(2-fluorophenyl)-[1,2,4]-triazolo[4,3-b]pyridazine]",half-life at 0.25 μM [1]: 85.6 ± 6.1 min
100 ± 5.7,"[2H]C([2H])([2H])n1ncnc1COc1nn2c(-c3ccccc3F)nnc2cc1C(C([2H])([2H])[2H])(C([2H])([2H])[2H])C([2H])([2H])[2H] [Compound 109, 7-d9-tert-Butyl-3-(2-fluorophenyl)-6-((1-d3-methyl-1H-1,2,4-triazol-5-yl)methoxy)-[1,2,4]triazolo[4,3-b]pyridazine]",
62 ± 3.1,"CCn1ncnc1COc1nn2c(-c3ccccc3F)nnc2cc1C(C)(C)C [TPA023, 7-tert-Butyl-6-(1-ethyl-1H-1,2,4-triazol-5-ylmethoxy)-3-(2-fluorophenyl)-1,2,4-triazolo[4,3-b]pyridazine]","sedative effects ([2]; certain doses tested): sedative effects at certain doses tested; anxiolytic effects [2]: anxiolytic effects; effect on alertness, muscle relaxation or memory [2]: no effect; half-life at 0.25 μM [1]: 44.5 ± 4.4 min"
92 ± 3.5,"[2H]C([2H])(Oc1nn2c(-c3ccccc3F)nnc2cc1C(O)(C([2H])([2H])[2H])C([2H])([2H])[2H])c1ncnn1C([2H])([2H])C([2H])([2H])[2H] [Compound 206, 2-(6-((1-d5-Ethyl-1H-1,2,4-triazol-5-1)methoxy-d2)-3-(2-fluorophenyl)-[1,2,4]triazolo[4,3-b]pyridazin-7-yl)propan-1,1,1,3,3,3-d6-2-ol]",
